Assay results published in patent US20220111056A1, “DRUG-LOADED EMULSION” (ZHEJIANG ZHIDA PHARMACEUTICAL CO., LTD., priority 2019, published 2022).

Assay type: physicochemical
Experimental: The specific experimental method was as follows. […] The chloroform solution was mixed with 0.5 ml of chloroform, from which 0.5 ml of diluent was taken and two-fold serial dilution was performed by using chloroform. Then 0.5 ml of a chloroform solution of paclitaxel (10 mg/ml) was added to the above-mentioned sample after the two-fold serial dilution, and then left in a hood to be naturally volatilized overnight. Crystal formation in the dried sample was observed and recorded.

Q: With castor oil as the substance, how does the “solubility of paclitaxel (crystal formation)” value read?
A: Its value is “+”.
